# Data as given in US20100209934A1, “METHOD OF IDENTIFYING AGENTS WHICH MODULATE THE ACTIVITY OF CALCIUM-ACTIVATED CHLORIDE CHANNEL” (SNU R&DB FOUNDATION, priority 2007, published 2010).
# Assays:
# mANO1 [1] = assay: Whole-cell current response to GPCR stimulation in HEK 293T cells co-transfected with mANO1 and a GPCR; assay type: cell-based, mouse; settings: mANO1 co-expressed in HEK cells with M1R, H1R or AT1R; carbachol 1 μM, histamine 100 μM, angiotensin II 1 μM
# Procedure: HEK 293T cells were transfected with pEGFP-N1 (control) (1.0 μg) or pEGFP-N-1-mANO1 (0.8˜1.0 μg) and/or any one of the GPCR cDNAs (1.0 μg) obtained in Reference Example 2, using a FuGENE® HD transfection reagent (Roche Diagnostics, Penzberg, Germany). Transfected cells were maintained in DMEM supplemented with heat inactivated 10% fetal bovine serum (GIBCO BRL, Rockville, Md.) and penicillin-streptomycin at 37 in a 5% CO2 humidified atmosphere. One or two days after transfection, transfected cells were used for biochemical and electrophysiological experiments.
# (§1) To form gigaseals, individual cell surfaces were touched with a ˜3 Mohm Sylgard-coated glass pipette with gentle suction, and the junction potential was then adjusted to 0 mV. The membrane in contact with the pipette was then ruptured by suction to form a whole cell. The pipette solution contained 140 mM NMDG-Cl, 2 mM MgCl2, 10 mM HEPES, 2 mM ATP, and 0.3 mM GTP adjusted to pH 7.2, and the bath solution contained 140 mM NMDG-Cl, 2 mM MgCl2 and 10 mM HEPES (pH 7.2). For ion selectivity experiments, 140 mM NMDG-Cl was replaced with equimolar NaCl, NaL NaBr, NaNO3, NaF, or Na-gluconate in the bath solution. To determine current-voltage relationships, voltage ramps from −80 or −100 mV to +80 or +100 mV were delivered for 350 ms, or voltage-pulses from −100 mV to +100 mV were delivered for 400 ms to whole cells. When mANO1 was activated by 300 nM intracellular Ca^2+, voltage-pulses of 2500 ms were delivered. Whole-cell currents were amplified using an Axopatch 200B amplifier (Molecular Device, Sunnyvale, Calif.) and stored in a personal computer after digitization by a Digidata 1440 (Molecular Device). For single-channel current recordings, cell-attached or inside-out patches were formed from gigaseals. The pipette and control bath solution contained 140 mM NMDG-Cl, 2 mM MgCl2 and 10 mM HEPES (pH 7.2). […] To create amplitude histograms, pClamp software (version 6.0, Molecular Device) was used to analyze open and closed single-channel current events. The half-amplitude algorithm was used to determine an open event. The minimum duration of an open event was set at 0.1 ms.
# Under physiological conditions CaCCs are known to be activated by GPCR stimulation. Endothelin-1 is a powerful vasoconstrictor that depolarizes vascular smooth muscle by activating CaCCs (Klockner, U. & Isenberg, G., Pflugers Arch. 418, 168-75 (1991); and Salter, K. J. & Kozlowski, R. Z., J Pharmacol Exp Ther. 279, 1053-62 (1996)). Thus, mANO1 and endothelin receptor subtype A (ETAR) were transfected into HEK 293T cells, along with GFP for visual identification of transfected cells, in accordance with the method of Reference Example 5. Whole cells were used to test the current response of mANO1 to ETAR stimulation. Pipette and bath solutions contained 140 mM N-methyl D-glucamine (NMDG)-Cl, which permitted Cl^− to be used as the main charge carrier. The pipette solution was Ca^2+ free and contained no EGTA. […] In contrast, endothelin-1 evoked currents were minimal in HEK cells transfected with ETAR or control (GFP-transfected only) cells. When mANO1 was transfected alone, 50 nM endothelin-1 evoked appreciable currents; presumably because of the presence of endogenous endothelin receptors in HEK cells.
# mANO1 [2] = molecular target: T1, mANO1 (Mus musculus, UniProt Q8BHY3, S527P); assay: Two-electrode voltage clamp currents in Xenopus oocytes injected with mANO1 complementary RNA; assay type: cell-based; set-up: expressed in transfected cells; host or cells: Xenopus laevis oocytes (cRNA injection); settings: for block of LPA current responses by pretreatment: mANO1 oocytes, 1 μM thapsigargin for 3 hours or 10 μM U-73122 for 20 min before 1 μM LPA; for block of LPA-induced ANO1 currents: DIDS 300 μM, niflumic acid 200 μM, NPPB 200 μM applied 10˜20 min before LPA
# T1 sequence (Q8BHY3 1-960 S527P): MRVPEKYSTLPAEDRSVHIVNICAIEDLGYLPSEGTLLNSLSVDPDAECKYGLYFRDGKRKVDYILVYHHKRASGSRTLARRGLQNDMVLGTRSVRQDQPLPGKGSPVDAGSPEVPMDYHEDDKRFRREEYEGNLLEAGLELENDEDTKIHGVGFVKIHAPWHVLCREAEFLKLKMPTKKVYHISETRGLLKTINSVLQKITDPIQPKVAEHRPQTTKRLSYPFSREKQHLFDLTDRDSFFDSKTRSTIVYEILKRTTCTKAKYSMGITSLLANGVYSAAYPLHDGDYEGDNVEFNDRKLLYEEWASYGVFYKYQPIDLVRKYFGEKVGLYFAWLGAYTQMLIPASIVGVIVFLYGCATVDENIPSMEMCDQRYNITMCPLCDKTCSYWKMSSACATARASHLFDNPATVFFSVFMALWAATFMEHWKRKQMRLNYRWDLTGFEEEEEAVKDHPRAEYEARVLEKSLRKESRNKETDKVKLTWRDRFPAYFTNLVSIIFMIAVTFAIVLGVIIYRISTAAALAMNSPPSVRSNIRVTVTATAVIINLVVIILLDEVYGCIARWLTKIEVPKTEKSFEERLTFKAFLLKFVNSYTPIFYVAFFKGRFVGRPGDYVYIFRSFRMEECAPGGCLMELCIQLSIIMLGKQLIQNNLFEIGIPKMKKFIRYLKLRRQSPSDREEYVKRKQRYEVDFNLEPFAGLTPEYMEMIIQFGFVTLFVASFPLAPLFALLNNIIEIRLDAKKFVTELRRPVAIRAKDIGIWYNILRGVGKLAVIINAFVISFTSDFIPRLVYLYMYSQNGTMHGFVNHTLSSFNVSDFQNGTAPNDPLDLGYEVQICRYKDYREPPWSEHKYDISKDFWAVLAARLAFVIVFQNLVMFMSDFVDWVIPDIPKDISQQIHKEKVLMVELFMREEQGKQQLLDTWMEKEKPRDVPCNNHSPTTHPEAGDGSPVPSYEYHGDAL
# Procedure: pSDTF-mANO1 obtained in Reference Example 1 was linearized using BamHI. Complementary RNA was transcribed with SP6 RNA polymerase (mMESSAGE mMACHINE® SP6 Kit, Ambion, Austin, Tex.). After being defolliculated with collagenase (Type IA, Sigma), Xenopus laevis oocytes were injected with 50 ng of the complementary RNAs of mANO1 in 50 nl of diethylpyrocarbonate-treated water. Two to five days after the injection, whole cell currents were recorded using the two-electrode voltage clamp technique. The bath solution contained 96 mM NaCl, 1 mM MgCl2, 5 mM HEPES, 2 mM KCl and 1.8 mM CaCl2 at pH 7.5 and was perfused at 2 ml/min. Experiments were performed at room temperature.
# Xenopus oocytes provide a recognized model for endogenous CaCC studies because they express endogenous CaCCs that are required for ‘fertilization depolarization’ (Hartzell, H. C. et al., Mol Pharmacol 51, 683-92 (1997)). Furthermore, the biophysical and pharmacological properties of Xenopus CaCCs are similar to those of mammalian CaCCs (Machaca, K. et al., Calcium-Activated Chloride Channels (ed. Fuller, C. M.) (Academic Press, Amsterdam, 2002)). Accordingly, the present inventors expressed mANO1 in Xenopus oocytes and tested its activation by receptor stimulation using 1 μM LPA (lysophosphatidic acid). CaCCs in Xenopus are known to be activated by LPA (Guo, Z. et al., Proc Natl Acad Sci USA. 93, 14367-72 (1996); and Kim, M. J. et al., Biochem Pharmacol. 59, 241-7 (2000)). […] Moreover, LPA-induced ANO1 currents were outwardly-rectifying, like those of native CaCCs in Xenopus oocytes (Machaca, K. et al., supra) (FIG. 4C). The reversal potential was 37.7±1.05 mV (n=5), which is close to the equilibrium potential of Cl^− in Xenopus oocytes (Weber, W., Biochim Biophys Acta 1421, 213-33 (1999)).
# Indeed, LPA (1 μM) applied to oocytes expressing mANO1 induced a large inward current.
# Further, pretreatment of 1 μM thapsigargin blocked the IP3-induced current in a mANO1-expressing oocyte (FIGS. 10C and 10D).
# (§2) LPA-induced ANO1 currents were blocked by Cl^− channel blockers. The Cl^− channel blockers were applied 10˜20 min before the LPA application. […] This blockade of agonist-induced ANO1 currents by DIDS, niflumic acid, or NPPB were also observed in mammalian cells transfected with mANO1.
# mANO1 [3] = molecular target: T1, mANO1; assay: Inhibition of endothelin-1 evoked currents in mANO1-ETAR/HEK cells by Cl− channel and CaCC blockers; assay type: cell-based; set-up: expressed in transfected cells; settings: ANO1/ETAR-HEK cells; blockers 10 μM (mefloquine 5 μM) applied 5 min before second 50 nM endothelin-1
# Procedure: B. Inhibition of endothelin-1 evoked currents in mANO1-ETAR/HEK cells by Cl^− channel blockers as well as classical inhibitors (each, n=5) of native CaCCs. Chemicals in 10 μM (except mefloquine, 5 μM) were applied 5 min before the second application of endothelin-1. Control (n=12). **p<0.001 compared to control (ANOVA, Duncan's post hoc test). (Error bars=Mean±S.E.M)
# as §1, §2
# In addition, modifiers of various enzymes or transporters such as fluoxetine (serotonin reuptake inhibitor), tamoxifen (estrogen receptor modulator), n-phenyl-anthranilic acid (NPA, cyclooxygenase inhibitor), and mefloquine (antimalarial drug) are known to block native CaCCs (Eggermont, J., Proc Am Thorac Soc. 1, 22-7 (2004); Nilius, B. et al. J Physiol. 498, 381-96 (1997); Nilius, B. & Droogmans, G., Acta Physiol Scand 177, 119-47 (2003)). If ANO1 is a CaCC, mANO1 should be inhibited by these CaCC blockers.
molecule,measurement,setting,value
angiotensin II (DRVYIHPF) [ligand of angiotensin receptor subtype 1 (AT1R)],current responses to GPCR ligands,mANO1 [1],robust current responses
COc1ccc2c(c1)CC[C@@H]1[C@@H]2CC[C@]2(C)[C@@H](NCCCCCCN3C(=O)C=CC3=O)CC[C@@H]12 [U-73122],block of LPA current responses by pretreatment,mANO1 [2],completely blocked
O=C(O)c1cccnc1Nc1cccc(C(F)(F)F)c1 [niflumic acid],block of LPA-induced ANO1 currents,mANO1 [2]; Xenopus oocytes,significantly blocked
same,inhibition of response to second application of endothelin-1 (endothelin-1 induced currents),mANO1 [3],markedly inhibited
lysophosphatidic acid [LPA],current response to LPA in mANO1 RNA-injected vs water-injected oocytes,"mANO1 [2]; 1 μM LPA, Xenopus oocytes, −60 mV",increased about six fold
OC(c1cc(C(F)(F)F)nc2c(C(F)(F)F)cccc12)C1CCCCN1 (stereo not drawn) [mefloquine],inhibition of response to second application of endothelin-1 (endothelin-1 induced currents),mANO1 [3],markedly inhibited
CNCCC(Oc1ccc(C(F)(F)F)cc1)c1ccccc1 (stereo not drawn) [fluoxetine],inhibition of response to second application of endothelin-1 (endothelin-1 induced currents),mANO1 [3],markedly inhibited
"O=P(O)(O)O[C@@H]1[C@H](O)[C@H](O)[C@@H](OP(=O)(O)O)[C@H](OP(=O)(O)O)[C@H]1O [IP3, inositol 1,4,5,-triphosphate]",inward currents evoked by IP3 micro-injection,mANO1 [2]; 2 mM IP3 in 50 nl into oocytes expressing ANO1,evoked robust inward currents
"O=C(O)c1cc([N+](=O)[O-])ccc1NCCCc1ccccc1 [NPPB, 5-nitro-2-(3-phenyl-propylamino)-benzoate]",block of LPA-induced ANO1 currents,mANO1 [2]; Xenopus oocytes,significantly blocked
same,inhibition of response to second application of endothelin-1 (endothelin-1 induced currents),mANO1 [3],markedly inhibited
"O=S(=O)(O)c1cc(N=C=S)ccc1C=Cc1ccc(N=C=S)cc1S(=O)(=O)O [DIDS, 4,4′-diisothiocyanato-stilbene-2,2′-disulfonic acid]",block of LPA-induced ANO1 currents,mANO1 [2]; Xenopus oocytes,significantly blocked
same,inhibition of response to second application of endothelin-1 (endothelin-1 induced currents),mANO1 [3],markedly inhibited
CC/C(=C(\c1ccccc1)c1ccc(OCCN(C)C)cc1)c1ccccc1 [tamoxifen],inhibition of response to second application of endothelin-1 (endothelin-1 induced currents),mANO1 [3],markedly inhibited
NCCc1c[nH]cn1 [histamine],current responses to GPCR ligands,mANO1 [1],robust current responses
O=C(O)c1ccccc1Nc1ccccc1 [n-phenyl-anthranilic acid],inhibition of response to second application of endothelin-1 (endothelin-1 induced currents),mANO1 [3],markedly inhibited
C[N+](C)(C)CCOC(N)=O [carbachol],current responses to GPCR ligands,mANO1 [1],robust current responses
C/C=C(/C)C(=O)O[C@H]1C(C)=C2[C@H]([C@@H]1OC(=O)CCCCCCC)[C@@](C)(OC(C)=O)C[C@H](OC(=O)CCC)[C@@]1(O)[C@H]2OC(=O)[C@@]1(C)O [thapsigargin],block of LPA current responses by pretreatment,mANO1 [2],completely blocked
same,block of IP3-induced current,"mANO1 [2]; pretreatment of 1 μM thapsigargin, mANO1-expressing oocyte",blocked
